The values below come from patent US6662039B2, “Optical probing of neuronal connections with fluorescent indicators” (The Trustees of Columbia University in the City of New York, priority 1999, dated 2003).

The test system of the experiment is neurons in visual cortex brain slices. As to the kind of experiment: Optical probing of cortical brain slices made more excitable by channel/receptor blockers. Type of experiment: cell-based, mouse. Conditions: for effect on number of possible postsynaptic targets (follower cells): bath application to fura-2 AM loaded mouse cortical slice, trigger cell stimulated; for epileptiform events in imaged neurons: most or all imaged neurons show action-potential induced increases in [Ca2+]i. The text has this: This method consist of (i) loading (staining) populations of neurons in brain slices with fluorescent indicators such as fura-2 AM and (ii) imaging dozens of loaded cells during whole-cell stimulation of a particular neuron (the “trigger” cell). On-line analysis is used to determine if any other neurons (the “follower” cells) show a calcium transient time-locked to the firing of the “trigger” cell. After detection, a chosen “follower” cell is patched and a similar experiment is repeated. Histological processing is carried out on the fixed specimens. A detailed explanation of the experiment and some representative results follows.
Brain slices are made from the primary visual cortex of postnatal day (PND) 12-23 C57BL6 mice. Mice are anesthetized with Ketamine/Xylazine (120 mg/kg, 10 mg/kg respectively). Animals are decapitated and the brain is quickly removed and placed into cold ACSF (126 mM NaCl, 3 mM KCl, 26 mM NaHCO3, 1 mM NaH2PO4, 2 mM CaCl2, 2 mM MgSO4, 10 mM Dextrose, bubbled with 95% O2/5% CO2). Coronal slices, 300-400 μm thick, are cut using a vibratome (TPI) and are incubated at 35° C. for 30 minutes in a submerged slice chamber. Slices are then incubated at room temperature (˜25° C.) for up to 12 hours.
After loading, slices are placed in a submerged recording chamber mounted on the stage of an upright microscope (BX50WI, Olympus). All experiments are done at room temperature. Fluorescent images of fura-2 loaded neurons are taken with a cCCD camera (Micromax, Princeton Instruments) equipped with a frame transfer chip (EEV 512, Kodak) or an hexagonal photodiode array with 464 pixels (PDA, Universal Imaging). To maximize the number of imaged neurons a 20×/0.5 NA water immersion objective (Olympus) is used. Image acquisition is typically 25 msec/frame and each pixel is digitized at 12 bits. Camera images are acquired, stored and analyzed using a Macintosh 7100 (Apple Computers, Cupertino, Calif.) computer and IPLab software (Signal Analytics). Signals from the photodiodes are amplified, sampled at 1.6 KHz and analyzed using Neuroplex (Universal Imaging). For imaging of the calcium transients a 380 nm excitation, a 395 nm dichroic and a 510 emission filter (Chroma) are used. Also imaged is each neuron at the isosbestic excitation of 365 nm during every experiment to assess the approximate [Ca^2+]i and therefore monitor the health of the cells. The 365 nm images are used to estimate the intracellular concentration of fura-2, using the fluorescence of the patched cell (which has a known concentration of fura-2) as a calibration. For most neurons, after correcting for background fluorescence and focus, an intracellular concentration of indicator of approximately 40-50 μM was estimated. These values, obtained from experiments with good loading at PND 12-23, obviously depend crucially on many factors that affect loading, such as age, incubation time and health of the slices. Changes in fluorescence in multiple cells were analyzed with a program written in IPLab. The fluorescence change over time is defined as ΔF/F=(F0−F1)/(F0) and, for the analysis of the AM loaded cells fluorescence change was defined as ΔF/F=((F0−-B0)−(F1−B1))/(F0−B0), expressed in %, where F1 and B are fluorescence in the somata and background fluorescence, respectively, at any given timepoint, and F0 and B0 are fluorescence and background at the beginning of the experiment.
To maximize the effect of the stimulation of the trigger cell, different methods of enhancing synaptic release and also of making postsynaptic cells more excitable have been experimented with. Currently used is 3 mM [Ca^2+]e in our ACSF (artificial cerebrospinal fluid) because high [Ca^2+]e decreases synaptic failures and, by increasing the [Ca^2+] gradient between the inside and outside of the cell, it also produces bigger action-potential induced calcium signals. […]

Turning to `Nc1ccncc1` [4-AP], the “effect on number of possible postsynaptic targets (follower cells)” value (shortened to “effect on number … (follower cells)”) is recorded as “increases the number of possible postsynaptic targets” and the “epileptiform events in imaged neurons” value is listed as “produces spontaneous or evoked epileptiform events”.

As for `CN1CCc2cc3c(cc2[C@H]1[C@@H]1OC(=O)c2c1ccc1c2OCO1)OCO3` [Bicuculine], the “effect on number … (follower cells)” value is on record as “increases the number of possible postsynaptic targets” and the “epileptiform events in imaged neurons” value is “produces spontaneous or evoked epileptiform events”.

Take `CC[N+](CC)(CC)CC` [TEA]: the “effect on number … (follower cells)” value is recorded as “increases the number of possible postsynaptic targets” and the “epileptiform events in imaged neurons” value was “produces spontaneous or evoked epileptiform events”.
